Test results: US20160051513A1, “USE OF 4-BENZAMIDE IN THE TREATMENT OF NEUROPATHIC PAIN” (LES LABORATOIRES SERVIER, priority 2013, published 2016)
Where a name gives a salt, the structure may show the parent alone.

Key:
[1] = tested on: model of diabetic neuropathy caused by streptozocin (STZ); assay: Mechanical hyperalgesia (paw pressure vocalisation threshold) in model of diabetic neuropathy caused by streptozocin; type: in vivo, rat; details: for effect of reference treatments compared with the compound: STZ rats
Description: The effects of 4-{3-[cis-hexahydrocyclopenta[c]pyrrol-2(1H)-yl]propoxy}benzamide and of two reference treatments for neuropathic pain (gabapentin and pregabalin) were studied in the rat, in the model of diabetic neuropathy caused by streptozocin (STZ).
In rats, administration of high-dose STZ (>35 mg/kg) causes diabetes which is similar to hyperglycaemic diabetes mellitus in humans. This is brought about by histopathological changes in the beta cells of islets of Langerhans and is associated with neuropathic pain. This pain is made manifest especially by mechanical hyperalgesia which can be attested by the lowering of the animal's vocalisation threshold when an increasing pressure is applied to the paw (Courteix et al., Pain, 1993, 53(1):81-8). During the test, a weight is placed on the rat's paw; its weight (in grams) increases until the animal vocalises. In this experiment, 21 days after the intraperitoneal injection of STZ (72 mg/kg), the rats develop diabetes characterised especially by hyperglycaemia (controlled during the experiment by injection of insulin) and associated with mechanical hyperalgesia. Indeed, the vocalisation threshold of the rats is lowered by half compared to the threshold which those animals had prior to injection of STZ (FIG. 1).

[2] = tested on: thermal allodynia after administration of oxaliplatin (OXA); assay: Thermal (cold) allodynia, tail withdrawal time in cold bath at 10° C, model of neuropathy caused by oxaliplatin; type: in vivo, rat; details: for reversal of the allodynia (tail withdrawal time versus before the procedure): oxaliplatin 6 mg/kg i.p.
Excerpt: The effects of 4-{3-[cis-hexahydrocyclopenta[c]pyrrol-2(1H)-yl]propoxy}benzamide and of two reference treatments for neuropathic pain (gabapentin and pregabalin) were studied on the thermal allodynia which occurs in rats after administration of oxaliplatin (OXA). Oxaliplatin is a synthetic anticancer medication from the group of agents derived from platinum, especially used in the treatment of cancers of the colon and rectum.
In the rat, acute administration of oxaliplatin specifically causes cold hyperalgesia and allodynia in the subsequent 24 hours, which lasts for several days. This animal model therefore closely mimics the painful symptoms observed in humans after infusion of oxaliplatin, especially the rapid appearance of intense sensory disturbances caused by cold, of the hyperalgesic and allodynic type (Ling et al. Toxicology. 2007; 234(3):176-84).
The results of this study confirm that, 36 hours after acute intraperitoneal administration of oxaliplatin (6 mg/kg), the rats develop cold allodynia, reflected by very rapid withdrawal of their tail when it is placed in a cold bath at 10° C. Indeed, this withdrawal time is, on average, half as long as that of the rats before administration of oxaliplatin (FIG. 3).

[3] = tested on: mechanical hyperalgesia caused by chronic constriction (CCI) of the sciatic nerve; assay: Mechanical hyperalgesia (vocalisation threshold) in CCI model, compound and agomelatine on their own or in association; type: in vivo, rat; details: every day for 5 days, S 0.3 mg of base/kg per os, agomelatine 10 mg/kg i.p., alone or in association
Description: The effects of 4-{3-[cis-hexahydrocyclopenta[c]pyrrol-2(1H)-yl]propoxy}benzamide and agomelatine, administered on their own or in association, were studied on the mechanical hyperalgesia caused in the rat by chronic constriction (CCI) of the sciatic nerve (see Example B).
The vocalisation threshold was measured in the animals every day for 5 days, before and 45 minutes after the administration of 4-{3-[cis-hexahydrocyclopenta[c]pyrrol-2(1H)-yl]-propoxy}benzamide hydrochloride at a dose of 0.3 mg of base/kg per os (the compound being referred to as S in FIG. 4) and agomelatine at a dose of 10 mg/kg i.p., on their own or in association.

[4] = tested on: mechanical hyperalgesia caused by chronic constriction (CCI) of the sciatic nerve; assay: Mechanical hyperalgesia (vocalisation threshold) in model of neuropathy caused by chronic constriction (CCI) of the sciatic nerve; type: in vivo, rat; details: for reversal of the hyperalgesia (vocalisation threshold versus before the procedure): after 4 days of chronic treatment
Excerpt: The effects of 4-{3-[cis-hexahydrocyclopenta[c]pyrrol-2(1H)-yl]propoxy}benzamide and of gabapentin were studied on the mechanical hyperalgesia caused in the rat by chronic constriction (CCI) of the sciatic nerve.
This model of post-traumatic neuropathic pain closely reproduces the symptoms of neuropathic pain which can be observed in humans, namely mechanical and thermal hyperalgesia, mechanical allodynia and spontaneous pain (Bennett and Xie, Pain, 1988, 33(1):87-107; Munger et al., Exp Neurol, 1992, 118(2):204-14; Kim et al., Brain Res, 1997, 113(2):200-6.).

[5] = Clinical acceptability profile; type: in vivo, human
[6] = tested on: depression associated with the neuropathic pain caused by CCI; assay: Depression associated with neuropathic pain caused by CCI (duration of immobility in cylinder filled with water); type: in vivo; details: CCI rat, 4 weeks after constriction
Description: The effects of 4-{3-[cis-hexahydrocyclopenta[c]pyrrol-2(1H)-yl]propoxy}benzamide were studied on the depression associated with the neuropathic pain caused by CCI in the rat. In this study, the rat is placed for 5 minutes in a cylinder filled with water, out of which it is unable to climb. After struggling in the water, the animal becomes immobile, reflecting “behavioural despair”, which occurs when the animal realises that it will not be able to escape. Depressive behaviour is measured in this test by the duration of immobility.

[7] = tested on: anxiety associated with the neuropathic pain caused by chronic constriction (CCI) of the sciatic nerve; assay: Anxiety associated with neuropathic pain caused by CCI (time in open parts of cylindrical corridor); type: in vivo; details: CCI rat, 4 weeks after constriction
Description: The effects of 4-{3-[cis-hexahydrocyclopenta[c]pyrrol-2(1H)-yl]propoxy}benzamide were studied on the anxiety associated with the neuropathic pain caused by chronic constriction (CCI) of the sciatic nerve in the rat.
In this study, the rats are placed for 5 minutes in a cylindrical corridor which has two parts closed off by a wall and two opposite parts which are open. The test creates a conflict between the rodent's natural desire to explore and its fear of open spaces which make it vulnerable to predators. Anxiety is measured in this test by the time spent by the rat in exploring the open parts of the cylindrical corridor (Bleickardt et al. Psychopharmacology (Berl), 2009, 202(4):711-8; Alba-Delgado et al. Biol. Psychiatry, 2013, 73(1):54-62).

| SMILES | effect of reference treatments compared with the compound [1] | reversal of the allodynia (tail withdrawal time versus before the procedure) [2] | anti-hyperalgesic effect (vocalisation threshold), chronic administration [3] | reversal of the hyperalgesia (vocalisation threshold versus before the procedure) [4] | also measured |
| --- | --- | --- | --- | --- | --- |
| CC(C)C[C@H](CN)CC(=O)O [pregabalin, reference compound] | entirely comparable | rapid reversal is also observed | – | – | – |
| COc1ccc2cccc(CCNC(C)=O)c2c1 [agomelatine, reference compound] | – | – | moderate and very inconstant anti-hyperalgesic effect | – | – |
| NC(=O)c1ccc(OCCCN2C[C@H]3CCC[C@H]3C2)cc1 [S, 4-{3-[cis-hexahydrocyclopenta[c]pyrrol-2(1H)-yl]propoxy}benzamide hydrochloride] | – | complete reversal of the allodynia | moderate anti-hyperalgesic effect | complete reversal of the hyperalgesia | anti-hyperalgesic effect (vocalisation threshold) ([4]; 12 days after CCI, 1 mg of base/kg per os): significant anti-hyperalgesic effect; value of the vocalisation threshold relative to non-diabetic animals ([1]; 3 mg of base per kg per os, from the second day of administration): the same as that of non-diabetic animals; vocalisation threshold compared to animals having been given the carrier ([1]; STZ 72 mg/kg i.p., 21 days after, 3 mg of base per kg per os): substantial and significant increase in the vocalisation threshold; anti-allodynic effect (tail withdrawal time, cold bath 10° C) ([2]; 36 hours after oxaliplatin 6 mg/kg i.p., 0.3 mg of base/kg per os, from D1, 1 hour after a single administration): significant anti-allodynic effect |
| NCC1(CC(=O)O)CCCCC1 [gabapentin, reference compound] | entirely comparable | rapid reversal is also observed | – | reversal is also observed | – |
| NC(=O)c1ccc(OCCCN2C[C@H]3CCC[C@H]3C2)cc1 [4-{3-[cis-hexahydrocyclopenta[c]pyrrol-2(1H)-yl]-propoxy}benzamide] | – | – | – | – | acceptability profile ([5]; healthy volunteers): good acceptability profile; acceptability profile ([5]; patients suffering from Alzheimer's disease): good acceptability profile; beneficial effect on vocalisation threshold over time ([1]; administered every day for 5 days): maintained over time; effects on the depression associated with the neuropathic pain [6]: beneficial effects; effects on the anxiety associated with the neuropathic pain [7]: beneficial effects |
